Assay results taken from ChEMBL document CHEMBL4837235, “Cyclic Imine Pinnatoxin G is Cytotoxic to Cancer Cell Lines via Nicotinic Acetylcholine Receptor-Driven Classical Apoptosis” (2021).
Activity calls are given as the source filed them. The rule behind the calls is not given here.

Key:
PC-3 [1] = assay: Cytotoxicity against human PC-3 cells assessed as reduction in cell viability at 5 uM after 72 hrs by MTT assay; format: functional
MDA-MB-231 [2] = assay: Cytotoxicity against human MDA-MB-231 cells assessed as reduction in cell viability at 5 uM after 72 hrs by MTT assay; format: functional
U-87 MG [3] = assay: Cytotoxicity against human U87 cells assessed as reduction in cell viability at 5 uM after 72 hrs by MTT assay; format: functional, U-87MG ATCC
LN-18 [4] = assay: Cytotoxicity against human LN-18 cells assessed as reduction in cell viability at 5 uM after 72 hrs by MTT assay; format: functional
[5] = Cytotoxicity against human U373 cells assessed as reduction in cell viability at 5 uM after 72 hrs by MTT assay; format: functional, U-373MG ATCC; settings: U373 MG
HT-29 [6] = assay: Cytotoxicity against human HT-29 cells assessed as reduction in cell viability at 5 uM after 72 hrs by MTT assay; format: functional
MDA-MB-231 [7] = assay: Cell cycle arrest in human MDA-MB-231 cells assessed as accumulation of cells at G0/G1 phase at 5 uM after 72 hrs by propidium iodide staining based flow cytometric analysis (reference value: 57.7+/- 0.6%); format: functional
PC-3 [8] = assay: Cell cycle arrest in human PC-3 cells assessed as accumulation of cells at G0/G1 phase at 5 uM after 72 hrs by propidium iodide staining based flow cytometric analysis (reference value: 59.7+/- 0.2%); format: functional
HT-29 [9] = assay: Cell cycle arrest in human HT-29 cells assessed as accumulation of cells at S phase at 5 uM after 72 hrs by propidium iodide staining based flow cytometric analysis (reference value: 5.3+/- 0.4%); format: functional
HT-29 [10] = assay: Cell cycle arrest in human HT-29 cells assessed as accumulation of cells at G2/M phase at 5 uM after 72 hrs by propidium iodide staining based flow cytometric analysis (reference value: 22.3+/- 0.4%); format: functional
MDA-MB-231 [11] = assay: Cell cycle arrest in human MDA-MB-231 cells assessed as accumulation of cells at subG1 phase at 5 uM after 72 hrs by propidium iodide staining based flow cytometric analysis (reference value: 1.1+/- 0.1%); format: functional
HT-29 [12] = assay: Cell cycle arrest in human HT-29 cells assessed as accumulation of cells at subG1 phase at 5 uM after 72 hrs by propidium iodide staining based flow cytometric analysis (reference value: 1.9+/- 0.1%); format: functional
PC-3 [13] = assay: Cell cycle arrest in human PC-3 cells assessed as accumulation of cells at subG1 phase at 5 uM after 72 hrs by propidium iodide staining based flow cytometric analysis (reference value: 3.7+/- 0.2%); format: functional
MDA-MB-231 [14] = assay: Induction of apoptosis in human MDA-MB-231 cells assessed as caspase activation using Ac-DEVD-AMC as substrate at 5 uM measured after 72 hrs by fluorometric assay relative to control; format: functional
PC-3 [15] = assay: Induction of apoptosis in human PC-3 cells assessed as caspase activation using Ac-DEVD-AMC as substrate at 5 uM measured after 72 hrs by fluorometric assay relative to control; format: functional
HT-29 [16] = assay: Induction of apoptosis in human HT-29 cells assessed as caspase activation using Ac-DEVD-AMC as substrate at 5 uM measured after 72 hrs by fluorometric assay relative to control; format: functional
MDA-MB-231 [17] = assay: Induction of apoptosis in human MDA-MB-231 cells assessed as early apoptosis at 5 uM measured after 72 hrs by AnnexinV/propidium iodide staining based flow cytometry; format: functional
HT-29 [18] = assay: Induction of apoptosis in human HT-29 cells assessed as early apoptosis at 5 uM measured after 72 hrs by AnnexinV/propidium iodide staining based flow cytometry; format: functional
PC-3 [19] = assay: Induction of apoptosis in human PC-3 cells assessed as early apoptosis at 5 uM measured after 72 hrs by AnnexinV/propidium iodide staining based flow cytometry; format: functional
MDA-MB-231 [20] = assay: Induction of mitochondrial membrane permeability in human MDA-MB-231 cells assessed as mitochondrial membrane permeability at 5 uM measured after 72 hrs by TMRE staining based analysis (reference value: 7%); format: functional
HT-29 [21] = assay: Induction of mitochondrial membrane permeability in human HT-29 cells assessed as mitochondrial membrane permeability at 5 uM measured after 72 hrs by TMRE staining based analysis (reference value: 7%); format: functional
PC-3 [22] = assay: Induction of mitochondrial membrane permeability in human PC-3 cells assessed as mitochondrial membrane permeability at 5 uM measured after 72 hrs by TMRE staining based analysis (reference value: 7%); format: functional
[23] = target: T1, Neuronal acetylcholine receptor (Homo sapiens) (UniProt P17787+P30926+P32297+P43681+Q15822+Q9UGM1+Q15825+P30532+P36544+Q9GZZ6+Q05901); assay: Antagonist activity at nAChR in human MDA-MB-231 cells assessed as reduction cytoplasmic free calcium level at 5 uM measured upto 6 hrs by Fura2-AM dye based fluorescence assay; format: cell-based; settings: time hrs <=6
[24] = target: T1, Neuronal acetylcholine receptor (Homo sapiens); assay: Antagonist activity at nAChR in human HT-29 cells assessed as reduction in cytoplasmic free calcium level at 5 uM measured upto 6 hrs by Fura2-AM dye based fluorescence assay; format: cell-based; settings: time hrs <=6
[25] = target: T1, Neuronal acetylcholine receptor (Homo sapiens); assay: Antagonist activity at nAChR in human PC-3 cells assessed as reduction in cytoplasmic free calcium level at 5 uM measured upto 6 hrs by Fura2-AM dye based fluorescence assay; format: cell-based; settings: time hrs <=6
N2a = assay: Cytotoxicity against mouse Neuro2a cells assessed as cell viability at 0.46 uM measured after 72 hrs by MTT assay; format: functional, cell-based
Caco-2 = assay: Cytotoxicity against human Caco-2 cells assessed as cell viability at 0.46 uM measured after 72 hrs by MTT assay; format: functional, cell-based
HeLa = assay: Cytotoxicity against human HeLa cells assessed as loss of cell viability at 5.76 uM measured after 72 hrs by MTT assay; format: functional
MDA-MB-231 [26] = assay: Cell cycle arrest in human MDA-MB-231 cells assessed as decrease in accumulation of cells at G2/M phase at 5 uM after 72 hrs by propidium iodide staining based flow cytometric analysis; format: functional
PC-3 [27] = assay: Cell cycle arrest in human PC-3 cells assessed as decrease in accumulation of cells at G2/M phase at 5 uM after 72 hrs by propidium iodide staining based flow cytometric analysis; format: functional
PC-3 [28] = assay: Cytotoxicity against human PC-3 cells assessed as reduction in cell viability at 5 uM after 48 to 72 hrs by MTT assay; format: functional, cell-based; settings: time 48-72 hrs
MDA-MB-231 [29] = assay: Cytotoxicity against human MDA-MB-231 cells assessed as reduction in cell viability at 5 uM after 48 to 72 hrs by MTT assay; format: functional, cell-based; settings: time 48-72 hrs
U-87 MG [30] = assay: Cytotoxicity against human U87 cells assessed as reduction in cell viability at 5 uM after 24 to 72 hrs by MTT assay; format: functional, cell-based; settings: U-87MG ATCC, time 24-72 hrs
LN-18 [31] = assay: Cytotoxicity against human LN-18 cells assessed as reduction in cell viability at 5 uM after 24 to 72 hrs by MTT assay; format: functional, cell-based; settings: time 24-72 hrs
U-373MG ATCC = assay: Cytotoxicity against human U373 cells assessed as reduction in cell viability at 5 uM after 24 to 72 hrs by MTT assay; format: functional, cell-based; settings: time 24-72 hrs
HT-29 [32] = assay: Cytotoxicity against human HT-29 cells assessed as reduction in cell viability at 5 uM after 24 to 72 hrs by MTT assay; format: functional, cell-based; settings: time 24-72 hrs
PC-3 [33] = assay: Cytotoxicity against human PC-3 cells assessed as reduction in cell viability at 5 uM after 24 hrs by MTT assay; format: functional, cell-based
MDA-MB-231 [34] = assay: Cytotoxicity against human MDA-MB-231 cells assessed as reduction in cell viability at 5 uM after 24 hrs by MTT assay; format: functional, cell-based

## C=CC1=C[C@@H]2[C@@H]3O[C@]4(C[C@H]5CCC[C@@]6(CC[C@@]7(O[C@@H](CC[C@@]7(C)O)CC(=C)CCCC7=NC[C@H](C)[C@@H](C)C[C@@]72CC1)O6)O5)C[C@@H](C)[C@@H](O)[C@H]3O4
PC-3 [1]
  inhibition at 5 µM: 30%
MDA-MB-231 [2]
  inhibition at 5 µM: 30%
U-87 MG [3]
  inhibition at 5 µM: 30%
LN-18 [4]
  inhibition at 5 µM: 50%
[5]
  inhibition at 5 µM: 50%
HT-29 [6]
  inhibition at 5 µM: 50%
MDA-MB-231 [7]
  Activity: 62.4%
PC-3 [8]
  Activity: 65.4%
HT-29 [9]
  Activity: 8%
HT-29 [10]
  Activity: 32.5%
MDA-MB-231 [11]
  Activity: 4.5%
HT-29 [12]
  Activity: 5.5%
PC-3 [13]
  Activity: 9.7%
MDA-MB-231 [14]
  fold change (FC): 5.5
PC-3 [15]
  fold change (FC): 5.5
HT-29 [16]
  fold change (FC): 10.5
MDA-MB-231 [17]
  Activity: 13.7%
HT-29 [18]
  Activity: 10.7%
PC-3 [19]
  Activity: 13.9%
MDA-MB-231 [20]
  Activity: 14.8%
HT-29 [21]
  Activity: 17.9%
PC-3 [22]
  Activity: 13.8%
[23]
  inhibition: 23.6%
[24]
  inhibition: 16.2%
[25]
  inhibition: 14.2%
N2a
  Activity: inactive
Caco-2
  Activity: inactive
HeLa
  Activity: 27%
MDA-MB-231 [26]
  Activity: Active
PC-3 [27]
  Activity: Active
PC-3 [28]
  Activity: Active
MDA-MB-231 [29]
  Activity: Active
U-87 MG [30]
  Activity: Active
LN-18 [31]
  Activity: Active
U-373MG ATCC
  Activity: Active
HT-29 [32]
  Activity: Active
PC-3 [33]
  Activity: inactive
MDA-MB-231 [34]
  Activity: inactive
